Test results: ChEMBL document CHEMBL1122157 (J Med Chem, 1982)

Target: T1, Dihydrofolate reductase (Gallus gallus, UniProt P00378)
T1 sequence (P00378 whole entry): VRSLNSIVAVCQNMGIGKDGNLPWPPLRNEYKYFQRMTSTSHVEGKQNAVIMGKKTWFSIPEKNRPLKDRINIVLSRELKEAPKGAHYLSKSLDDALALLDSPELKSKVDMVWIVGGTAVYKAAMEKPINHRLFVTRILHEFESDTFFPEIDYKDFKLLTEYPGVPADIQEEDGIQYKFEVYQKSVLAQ
Assay: Evaluated for the inhibition of chicken liver Dihydrofolate reductase by using standard enzyme assay
Details: read-out: I50

| IC50 | Compound |
| --- | --- |
| 3100 nM | CN(Cc1cnc2nc(N)nc(N)c2n1)c1ccc(C(=O)NC(CCCNC(=O)OCc2ccccc2)C(=O)OC(C)(C)C)cc1 (stereo unspecified) |
| 250 nM | CN(Cc1cnc2nc(N)nc(N)c2n1)c1ccc(C(=O)NC(CCCN)C(=O)O)cc1 (stereo unspecified) |
| 330 nM | CN(Cc1cnc2nc(N)nc(N)c2n1)c1ccc(C(=O)NC(CCCNC(=O)OCc2ccccc2)C(=O)O)cc1 (stereo unspecified) |
| 130 nM | CN(Cc1cnc2nc(N)nc(N)c2n1)c1ccc(C(=O)NC(CCCCN)C(=O)O)cc1 (stereo unspecified) |
| 950 nM | CN(Cc1cnc2nc(N)nc(N)c2n1)c1ccc(C(=O)NC(CCCCNC(=O)OCc2ccccc2)C(=O)OC(C)(C)C)cc1 (stereo unspecified) |
| 380 nM | CN(Cc1cnc2nc(N)nc(N)c2n1)c1ccc(C(=O)NC(CCCCNC(=O)OCc2ccccc2)C(=O)O)cc1 (stereo unspecified) |
